{
  "source": "patent US20030040105A1",
  "about": "“Microfluidic micromixer” (priority 1999, published 2003)",
  "molecular_target": "T1, streptavidin coated bead bearing fluorescein biotin (Streptomyces avidinii, UniProt P22629)",
  "T1 construct": "purchased Spherotech Inc., Libertyville, Ill",
  "T1 sequence (P22629 25-183)": "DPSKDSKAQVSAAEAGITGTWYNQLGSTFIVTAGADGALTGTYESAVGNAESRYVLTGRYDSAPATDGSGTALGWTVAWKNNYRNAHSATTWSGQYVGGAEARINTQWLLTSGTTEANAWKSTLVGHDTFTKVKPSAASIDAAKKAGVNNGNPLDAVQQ",
  "assay": "unquenching of fluorescein biotin streptavidin beads by native biotin, flow cytometry",
  "format": "binding",
  "settings": "streptavidin beads with quenched fluorescein biotin, typical",
  "description": "Data are plotted as mean channel fluorescence (MCF) versus time for several concentrations of biotin. The binding of fluorescein biotin to streptavidin-coated beads shown in FIG. 12A is characterized by the quenching of fluorescence of particles bound relative to free fluorescein biotin. The quenching is relieved when free biotin is added. The base line fluorescence indicated by the constant signal on the right signifies the “ostrich quenched” fluorescein biotin beads. Typically, this type of quenching, “ostrich quenching,” occurs when the fluorescein moiety associates with the streptavidin-binding pocket adjacent to the biotin-moiety bearing site FIG. 12A. […] The subsequent increase in fluorescence signal on right is caused by homogeneously mixing native biotin with the microspheres causing the unquenching of FITC-biotin in the streptavidin receptor pocket on the bead surface.\nA 200 μL volume suspension of streptavidin coated beads (3.7×10^7 beads/mL) was diluted to 4 mL in TRIS buffer, (100 mM Tris HCl, 150 mM NaCl, 0.1% BSA, 0.02% sodium azide, pH 7.5). Subsequently, 1.0 μL of 8.7×10^−6 M fluorescein biotin solution was added to the beads. The sample was continuously agitated for 20 minutes, then centrifuged and resuspended in 6.0 mL of buffer. The final bead suspension comprised of ˜1.1 million beads/mL with a million fluorescein biotin molecules per bead. […]",
  "data": [
    {"smiles": "O=C(O)CCCC[C@@H]1SC[C@@H]2NC(=O)N[C@@H]21", "note": "[native biotin, Biotin]", "values": [
      {"measurement": "increase in fluorescence intensity after mixing with excess native biotin", "value": "eight-fold increase"}
    ]}
  ]
}
